IC50 data for 28 molecules are collected here from ChEMBL document CHEMBL5308541, “MAIP: An Open-Source Tool to Enrich High-Throughput Screening Output and Identify Novel, Druglike Molecules with Antimalarial Activity” (ACS Med Chem Lett, 2023).

In general, IC50 refers to the concentration needed to halve the response being measured. High values mean lower potency, low ones higher potency.

Data set [1] deals with Plasmodium falciparum. As to the kind of experiment: Hit confirmation in dose-response curve in NF54 pLDH assay, at 72h. In kind it is functional, organism-based, Erythrocyte. More on the design: timepoint 72 hour. As to conditions: Plasmodium falciparum, NF54, Erythrocyte, 72 h.
The test system of data set [2] is Plasmodium falciparum. As to the kind of experiment: Hit confirmation in dose-response curve in NF54 nanoGlo assay, at 72h. In kind it is functional, organism-based, Erythrocyte. More on the design: timepoint 72 hour. As to conditions: Plasmodium falciparum, NF54, Erythrocyte, 72 h.
The nature of data set [3]: Hit confirmation in dose-response curve in HepG2 cytotoxicity assay, at 72h. In kind it is toxicity, cell-based, Homo sapiens. More on the design: timepoint 72 hour. As to conditions: human, HepG2 cells.
Data set [4] concerns Plasmodium falciparum. As to the kind of experiment: Hit confirmation in dose-response curve in Dd2 pLDH assay, at 72h. The note with it: Plasmodium falciparum, Dd2, Erythrocyte, 72 h. More on the design: timepoint 72 hour. In kind it is functional, organism-based, Erythrocyte.
The subject of data set [5] is Plasmodium falciparum. As to the kind of experiment: Hit confirmation in dose-response curve in NF54 nanoGlo assay, at 12h. In kind it is functional, organism-based, Erythrocyte. Further details: timepoint 12 hour. As to conditions: Plasmodium falciparum, NF54, Erythrocyte, 12 h.

With `O=C(CCc1nnc(-c2ccc(-c3ccccc3)cc2)o1)NC[C@@H]1CCCN2CCCC[C@H]12`, the IC50 with Plasmodium falciparum [1] was found to be 5.13 µM; with Plasmodium falciparum [2] it was 4070 nM; in the data set with Plasmodium falciparum [4], 6.46 µM; in the data set with Plasmodium falciparum [5] it was 8.51 µM. Besides, the IC50 at 72 h in data set [3] is > 10 µM.

As to `CN1CCC(N(Cc2ccccc2)C(=O)c2cc3cnccc3[nH]2)CC1`, the IC50 in the data set on Plasmodium falciparum [1] came to 2.95 µM; in the data set on Plasmodium falciparum [2], 2510 nM; in the data set on Plasmodium falciparum [4] it was 2.82 µM; with Plasmodium falciparum [5], 5.37 µM. Moreover, the IC50 at 72 h in data set [3] was > 10 µM.

For the molecule `c1ccc(CN2CCC(CCNC[C@@H]3CCCN4CCCC[C@H]34)CC2)cc1`, the IC50 with Plasmodium falciparum [1] was determined as 2.57 µM; in the data set on Plasmodium falciparum [2] it was 2340 nM; with Plasmodium falciparum [4], 1.78 µM; in the data set on Plasmodium falciparum [5], 7.24 µM. The IC50 at 72 h in data set [3] is > 10 µM.

As to `Cc1ccc2[nH]c(-c3cc4n(n3)CCN(c3ccnc(N)n3)C4)nc2c1C`, the IC50 was 2.63 µM in the data set with Plasmodium falciparum [1], 1780 nM in the data set with Plasmodium falciparum [2], 2.63 µM in the data set on Plasmodium falciparum [4] and 3.63 µM in the data set on Plasmodium falciparum [5]. In data set [3], the IC50 at 72 h was > 10 µM.

With `CN1C(C)(C)CC(NC(=O)c2ccc(-c3cc(-c4cccc(C(F)(F)F)c4)n[nH]3)cc2)CC1(C)C`, the IC50 amounted to 9.33 µM with Plasmodium falciparum [1], 3630 nM in the data set with Plasmodium falciparum [2], 7.94 µM with Plasmodium falciparum [4] and 8.51 µM in the data set on Plasmodium falciparum [5]. Besides, the IC50 at 72 h in data set [3] is > 10 µM.

Take `Cc1cnccc1NCCNCc1cccc(OCCCCN2CCOCC2)c1`: the IC50 came out at 1.38 µM in the data set with Plasmodium falciparum [1], 1450 nM in the data set with Plasmodium falciparum [2], 1.2 µM in the data set on Plasmodium falciparum [4] and 2.75 µM in the data set with Plasmodium falciparum [5]. For the same molecule, the IC50 at 72 h in data set [3] was > 10 µM.

Regarding `Oc1cccc2c1CCC[C@@H]2NCc1ccc2occc2c1`, the IC50 amounted to 9.33 µM in the data set on Plasmodium falciparum [1], 4070 nM with Plasmodium falciparum [2], 8.51 µM with Plasmodium falciparum [4] and 4.57 µM in the data set with Plasmodium falciparum [5]. Besides, the IC50 at 72 h in data set [3] was > 10 µM.

`NC(=O)[C@]1(O)CCN(c2ccnc3ccc(Oc4ccccc4)cc23)C1`: the 50% inhibitory concentration (IC50) with Plasmodium falciparum [1] was 3.8 µM; in the data set with Plasmodium falciparum [2], 3310 nM; in the data set on Plasmodium falciparum [4] it was 3.24 µM; in the data set with Plasmodium falciparum [5], 7.76 µM. In data set [3], the IC50 at 72 h is > 10 µM.

For `CN(CCCn1ccnc1)c1ccnc2cc(Br)ccc12`, the IC50 came to 0.437 µM with Plasmodium falciparum [1], 550 nM in the data set with Plasmodium falciparum [2], 0.437 µM with Plasmodium falciparum [4] and 1.1 µM with Plasmodium falciparum [5]. Moreover, in data set [3], the IC50 at 72 h was > 10 µM.

Consider `COCCCN1CCC(Nc2ncnc3cc(C)c(C)cc23)CC1`, for which the IC50 in the data set on Plasmodium falciparum [1] stood at 1.7 µM; with Plasmodium falciparum [2], 1170 nM; in the data set on Plasmodium falciparum [4], 1.17 µM; in the data set on Plasmodium falciparum [5] it was 2.04 µM. Further, the IC50 at 72 h in data set [3] is > 10 µM.

As for `Cc1ccccc1CN1CCC(CNc2c3c(nc4ccccc24)CCC3)CC1`, the IC50 in the data set on Plasmodium falciparum [1] is 0.977 µM; with Plasmodium falciparum [2] it was 708 nM; with Plasmodium falciparum [4] it was 0.741 µM; in the data set on Plasmodium falciparum [5], 3.63 µM. Also, the IC50 at 72 h in data set [3] was found to be 5.25 µM.

Regarding `O[C@H]1CCN(Cc2ccccc2CNc2cccc(-n3ccnc3)n2)C1`, the IC50 with Plasmodium falciparum [1] is 2.24 µM; in the data set with Plasmodium falciparum [2], 1410 nM; in the data set on Plasmodium falciparum [4] it was 2.19 µM; in the data set with Plasmodium falciparum [5], 3.63 µM. Further, the IC50 at 72 h in data set [3] was > 10 µM.

In the case of `CCN1CCN(c2ccc(CNCc3cccc(O)c3)cc2F)CC1`, the IC50 in the data set on Plasmodium falciparum [1] came out at 3.39 µM; in the data set with Plasmodium falciparum [2] it was 1950 nM; in the data set with Plasmodium falciparum [4], 3.89 µM; with Plasmodium falciparum [5] it was 8.91 µM. Also, the IC50 at 72 h in data set [3] is > 10 µM.

Regarding `CCCC(=O)NC1COCC1Cc1ccncc1` (stereo not given), the IC50 was > 10 µM in the data set with Plasmodium falciparum [1], 6310 nM in the data set on Plasmodium falciparum [2], > 10 µM in the data set with Plasmodium falciparum [4] and 8.91 µM in the data set on Plasmodium falciparum [5]. Moreover, the IC50 at 72 h in data set [3] was > 10 µM.

Take `Cc1ccccc1-c1cccc(N2CCC(NCC3CCNCC3)CC2)c1`: the IC50 in the data set on Plasmodium falciparum [1] stood at 1.41 µM; in the data set with Plasmodium falciparum [2] it was 1150 nM; in the data set with Plasmodium falciparum [4], 1.29 µM; in the data set with Plasmodium falciparum [5], 2.88 µM. Further, in data set [3], the IC50 at 72 h was 5.5 µM.

As for `CC(C)(C)n1ncc2c(NCc3ccc4cccnc4c3O)ncnc21`, the IC50 in the data set with Plasmodium falciparum [1] was determined as 6.46 µM; in the data set with Plasmodium falciparum [2], 3890 nM; in the data set with Plasmodium falciparum [4], 5.5 µM; in the data set on Plasmodium falciparum [5] it was 10 µM. This molecule also registered an IC50 at 72 h in data set [3] of 6.31 µM.

For the molecule `O[C@H]1CCN(Cc2cccc(NCc3cn4ccnc4s3)c2)C1`, the IC50 came to 4.17 µM with Plasmodium falciparum [1], 3890 nM with Plasmodium falciparum [2], 3.8 µM with Plasmodium falciparum [4] and 10 µM in the data set with Plasmodium falciparum [5]. The IC50 at 72 h in data set [3] was > 10 µM.

As for `COc1ccnc(NCCCc2nc(-c3ccncc3)cs2)n1`, the IC50 in the data set on Plasmodium falciparum [1] is 5.89 µM; in the data set with Plasmodium falciparum [2], 4790 nM; in the data set on Plasmodium falciparum [4], 4.68 µM; in the data set on Plasmodium falciparum [5] it was > 10 µM. Besides, in data set [3], the IC50 at 72 h was > 10 µM.

`Cc1nc(-c2ccccn2)nc(NC2CCN(CC(F)F)CC2)c1C`: the IC50 is 9.12 µM in the data set on Plasmodium falciparum [1], 2510 nM in the data set with Plasmodium falciparum [2], 6.46 µM in the data set on Plasmodium falciparum [4] and > 10 µM with Plasmodium falciparum [5]. The IC50 at 72 h in data set [3] was > 10 µM.

For `Cc1sc2nc(-c3ccccn3)nc(NCCc3nccn3C)c2c1-c1ccccc1`, the IC50 is 8.71 µM in the data set with Plasmodium falciparum [1], 3240 nM in the data set on Plasmodium falciparum [2], 3.55 µM in the data set with Plasmodium falciparum [4] and 8.91 µM with Plasmodium falciparum [5]. The molecule also came in with an IC50 at 72 h in data set [3] of 8.32 µM.

`COc1ccc(-c2cc(-c3ccccc3O)n([C@@H]3C(=O)Nc4ccc(Br)cc43)n2)cc1`: the IC50 in the data set on Plasmodium falciparum [1] worked out at 8.71 µM; in the data set with Plasmodium falciparum [2] it was 4070 nM; in the data set on Plasmodium falciparum [4], 8.71 µM; in the data set with Plasmodium falciparum [5], 4.9 µM. For the same molecule, the IC50 at 72 h in data set [3] is > 10 µM.

For the molecule `O=C(Nc1cnc2c(c1)COCC2)c1cc2c(OC(F)(F)F)cccc2[nH]1`, the IC50 in the data set on Plasmodium falciparum [1] was 1.55 µM; with Plasmodium falciparum [2] it was 676 nM; in the data set with Plasmodium falciparum [4], 2.19 µM; with Plasmodium falciparum [5] it was 0.955 µM. Also, the IC50 at 72 h in data set [3] is > 10 µM.

As for `COc1ccc2cc(NC(=O)c3cc(-c4c(C)nn(C)c4C)[nH]n3)cnc2c1`, the IC50 in the data set with Plasmodium falciparum [1] was determined as 7.24 µM; in the data set on Plasmodium falciparum [2], 2510 nM; in the data set on Plasmodium falciparum [4] it was 7.08 µM; with Plasmodium falciparum [5] it was 4.9 µM. Moreover, the IC50 at 72 h in data set [3] is > 10 µM.

In the case of `Cc1cc(N2CCC(NC3CCCC3Cc3ccc(F)cc3)CC2)nc(N)n1` (stereo not given), the IC50 with Plasmodium falciparum [1] is 1.1 µM; in the data set with Plasmodium falciparum [2], 912 nM; with Plasmodium falciparum [4] it was 1.1 µM; in the data set with Plasmodium falciparum [5], 3.02 µM. In data set [3], the IC50 at 72 h worked out at 4.68 µM.

Take `C[C@H](Nc1nc(N)c2ccccc2n1)c1cccc(-n2cncn2)c1`: the IC50 came to 5.89 µM in the data set on Plasmodium falciparum [1], 4470 nM with Plasmodium falciparum [2], 4.17 µM in the data set on Plasmodium falciparum [4] and 10.2 µM in the data set on Plasmodium falciparum [5]. In data set [3], the IC50 at 72 h was > 10 µM.

Consider `Cc1cc(N2CCC(N(C)Cc3cc(-c4ccccc4)n[nH]3)CC2)nc(N)n1`, for which the half-maximal inhibitory concentration (IC50) with Plasmodium falciparum [1] was 4.47 µM; in the data set on Plasmodium falciparum [2], 3240 nM; in the data set with Plasmodium falciparum [4], 3.72 µM; with Plasmodium falciparum [5], > 10 µM. The IC50 at 72 h in data set [3] is > 10 µM.

On to `CN(C)CCN1CCC(NC2CCC(O)(c3cccc(Cl)c3)CC2)CC1` (stereo not given), for which the IC50 with Plasmodium falciparum [1] is 4.47 µM; in the data set with Plasmodium falciparum [2], 5010 nM; in the data set on Plasmodium falciparum [4] it was 3.72 µM; in the data set on Plasmodium falciparum [5] it was > 10 µM. Moreover, in data set [3], the IC50 at 72 h is > 10 µM.

For `CCN1CCN([C@H]2CCN(c3ccnc4ccncc34)C2)CC1`, the IC50 in the data set with Plasmodium falciparum [1] is 1.15 µM; in the data set on Plasmodium falciparum [2], 1320 nM; in the data set on Plasmodium falciparum [4] it was 1.12 µM; in the data set on Plasmodium falciparum [5] it was 2 µM. Moreover, the IC50 at 72 h in data set [3] was > 10 µM.
